Test results: patent US7897637B2, “Methods of using flavonoids to enhance memory” (The Salk Institute for Biological Studies, priority 2006, dated 2011)

Tests used:
[1] = system: ERK; conditions: Vanhoutte et al. 1999; English & Sweatt 1997; cited from earlier work
[2] = system: HT22 cells; experiment: Protection of HT22 cells from oxidative glutamate toxicity (MTT assay); assay type: cell-based, mouse; conditions: 5 mM glutamate ± 50 μM PD98059, 24 hours
From the text: Fisetin is effective at protecting nerve cells from oxidative stress-induced death (Ishige et al., Free Radic. Biol. Med., 30:433-446, 2001). This Example illustrates the structure-activity relationship between fisetin derivatives and neuroprotection in a model of oxidative glutamate toxicity using mouse HT22 cells. This pathway of programmed cell death is initiated by the addition of glutamate to the extracellular medium. Glutamate inhibits the uptake of cystine which is required for glutathione (GSH) biosynthesis, resulting in the depletion of GSH in neurons (for review see Tan et al., Curr. Top. Med. Chem., 1:497-506, 2001). Subsequently, this decrease in cellular GSH results in the production of reactive oxygen species (ROS) by mitochondria. The ROS accumulation then causes Ca^+2 influx from the extracellular medium which leads to cell death.
HT22 cells were untreated (Ct) or treated with 10 μM fisetin, 25 μM 3,3′-DHF, 25 μM 3,4′-DHF, 2.5 μM 3′,4′-DHF, 2.5 μM 3,3′,4′-THF 25 μM 3,7,3′-THF, 25 μM 3,7,4′-THF or 10 μM 7,3′,4′-THF in the presence of 5 mM glutamate±50 μM PD98059. Twenty four (24) hours later cell survival was measured by the MTT assay.
HT22 cells were untreated (Ct) or treated with 10 μM fisetin, 25 μM 3,3′-DHF. […] Protection by all of the other flavonoids was unaffected by BSO.
Cell viability was determined by a modified version of the 3-(4,5-dimethylthiazol-2-yl)-2,5-diphenyl tetrazolium bromide (MTT) assay based on the standard procedure (Hansen et al., J. Immunol. Meth., 119:203-10, 1989). Briefly, cells were seeded onto 96-well microtiter plates at a density of 5×10^3 cells per well. The next day, the medium was replaced with DMEM supplemented with 7.5% DFCS and the cells were treated with the different flavonoids alone or in the presence of 5 mM glutamate. Twenty four hours later, the medium in each well was aspirated and replaced with fresh medium containing 2.5 μg/ml MTT. After 4 hours of incubation at 37° C., cells were solubilized with 100 μl of a solution containing 50% dimethylformamide and 20% SDS (pH 4.7). The absorbance at 570 nm was measured on the following day with a microplate reader (Molecular Devices). Results obtained from the MTT assay correlated directly with the extent of cell death as confirmed visually. Controls employing wells without cells were used to determine the effects of the agents upon the assay chemistry.

[3] = system: ERK; experiment: ERK activation in PC12 cells (immunoblotting, anti-phospho ERK); assay type: cell-based; conditions: 50 μM PD98059, 30 minutes pretreatment, flavonoids 4 hours
Description: PC12 cells were treated with the optimal concentrations for differentiation of the different derivatives for 10 minutes to 6 hours; then the cells were scraped into sample buffer and analyzed by SDS-PAGE and immunoblotting with an antibody specific for phosphorylated ERKs (anti-phospho ERK) and an antibody that detects phosphorylated and unphosphorylated ERKs (anti-ERK),
ERK activation by the different flavonoids was blocked by pretreatment with PD98059, an inhibitor of MEK, the kinase which phosphorylates ERK. PC12 cells in N2 medium were untreated (control) or treated with 10 μM fisetin, 25 μM 3,3′-DHF, 25 μM 3,4′-DHF, 25 μM 3′,4′-DHF, 5 μM 3,3′,4′-THF, 25 μM 3,7,3′-THF, 25 μM 3,7,4′-THF or 10 μM 7,3′,4′-THF for 4 hours in the absence or presence of 50 μM PD98059 (30 minutes pretreatment). The cells then were scraped into sample buffer and analyzed by SDS-PAGE and immunoblotting with an antibody specific for phosphorylated ERKs (anti-phospho ERK) and an antibody that detects phosphorylated and unphosphorylated ERKs (anti-ERK). […]
PC12 cells in N2 medium were treated with the flavonoids as described in the text and, after the indicated time periods, the cells were solubilized in SDS sample buffer containing 0.1 mM Na3VO4 and 1 mM phenylmethylsulfonyl fluoride (PMSF), boiled for 5 minutes and either analyzed immediately or stored frozen at −70° C. […]

[4] = system: ERK; experiment: ERK activation in primary cortical neuron cultures (immunoblotting); assay type: cell-based, rat; conditions: 50 μM PD98059 pretreatment, 10 μM fisetin 4 hours
Description: (§1) The average phosphoprotein signal from the blots was quantified by densitometry and normalized to total protein,
(§2) Five (5) day old cortical cultures were next pretreated with 50 μM of the MEK inhibitor, PD98059, before the addition of 10 μM fisetin for 4 hours.
(§3) Primary cultures of rat cortical neurons were prepared as previously described by Li et al. (Neuron, 19:453-63, 1997, herein incorporated by reference as to the method). Analysis of ERK and CREB phosphorylation was performed using SDS-polyacrylamide gel electrophoresis and immunoblotting as previously described by Sagara et al. (J. Neurochem., 90:1144-1155, 2004) using equal amounts of protein from 5 day old cortical cultures. Blots were scanned and quantified using NIH Image. Results were analyzed using an unpaired Student's t-test.

[5] = system: CREB; experiment: CREB activation in primary cortical neuron cultures (immunoblotting); assay type: cell-based, rat; conditions: 50 μM PD98059 pretreatment, 10 μM fisetin 4 hours
Description: as §1, §2, §3

[6] = system: CA1 area of rat hippocampal slices; experiment: Long-term potentiation in CA1 area of hippocampal slices; assay type: cell-based
[7] = system: ERK2 (p42); experiment: ERK2 (p42) phosphorylation in hippocampal slices (immunoblotting, densitometry); assay type: cell-based, rat; conditions: inhibitor alone (50 μM PD98059 or 10 μM U0126, 30 minutes)
Description: (§4) Western blots panels A and B) of hippocampal slices treated with (A) 1 μM fisetin or (B) pretreated for 30 minutes with either 50 μM PD98059 (PD) or 10 μM U0126 (U) before the addition of 1 μM fisetin for 5 minutes, which blots were probed with the indicated antibodies.
(§5) Hippocampal slices in artificial cerebral spinal fluid (ACSF) were treated with either 1 μM fisetin for 5-20 minutes or pretreated for 30 minutes with either 50 μM PD98059 (PD) or 10 μM U0126 (J) before the addition of 1 μM fisetin for 5 minutes. Equal amounts of protein were analyzed by SDS-PAGE and immunoblotting with antibodies to phospho-ERK and phospho-CRFB along with antibodies to the unphosphorylated forms of the proteins. The average phosphoprotein signal from the blots was quantified by densitometry and normalized to total protein was plotted±S.D.

[8] = system: ERK1 (p44); experiment: ERK1 (p44) phosphorylation in hippocampal slices (immunoblotting, densitometry); assay type: cell-based, rat; conditions: inhibitor alone (50 μM PD98059 or 10 μM U0126, 30 minutes)
Description: as §4, §5

[9] = system: CREB; experiment: CREB phosphorylation in hippocampal slices (immunoblotting, densitometry); assay type: cell-based, rat; conditions: inhibitor alone (50 μM PD98059 or 10 μM U0126, 30 minutes)
Description: as §4, §5

[10] = system: Male C57Bl/6J mice; experiment: Object recognition task; assay type: in vivo; conditions: oral, dose not given; vs vehicle
Description: The effect of fisetin, 3,3′,4′-THF, and apigenin (5,7,4′-THF) on memory was tested in mice using an object recognition task (Ennaceur and Delacour, Behav. Brain Res., 31:47-59, 1988). Among the alternatives available for testing memory, this assay has proven very effective for measuring CREB-dependent functions (Prickaerts et al., Neurosci., 113:351-61, 2002; Bourtchouladze et al., Proc. Natl. Acad. Sci. USA, 100:10518-22, 2003). In this test, mice are presented with two identical objects during the training period which they explore for a fixed time period. To test for memory, mice are presented one day later with two different objects, one of which was presented previously during the training and is thus familiar to the mice, and the other that is novel. The better a mouse remembers the familiar object, the more time it will spend exploring the novel object. To test the effects of fisetin, 3,3′,4′-THF, or apigenin (5,7,4′-THF) in this memory task, the respective compound was administered orally to the mice before the start of the training period. Rolipram, a phosphodiesterase inhibitor that potentiates memory in this assay (Bourtchouladze et al., Proc. Natl. Acad. Sci. USA, 100:10518-22, 2003), requires intraperitoneal injection and was used as a positive control.
Male C57Bl/6J mice (Jackson Laboratories) were used and the testing was done by PsychoGenics (Tarrytown, N.Y.). All mice were acclimated to the colony room for at least 2 weeks prior to testing and were tested at an average age of 8 weeks. Mice were randomly assigned across treatment groups with 10 mice in each group. For each dose tested, a 10× solution of fisetin was prepared in 95% ethanol and then diluted with 4 volumes polyethylene glycol 660 hydroxystearate (Solut HS15 from BASF) and 5 volumes phosphate buffered saline. The vehicle was contained the identical ratios of ethanol, Solut HS15 and phosphate buffered saline. All were administered orally 60 minutes prior to training at a volume of 10 ml/kg body weight. Rolipram was dissolved in 10% DMSO and administered intraperitoneally 20 minutes prior to training. The test was performed as previously described by Bourtchouladze et al. (Proc. Natl. Acad. Sci. USA, 100:10518-22, 2003). Briefly, on Day 1 mice were habituated to a circular open field arena for one hour in cage groups of four. Twenty-four (24) hours later, individual mice were placed back in the same arena which now contained two identical objects for a 15 minutes training trial. […] Each animal's test trial was recorded and the first 10 minutes of each session were scored. […] Data were analyzed by a one-way ANOVA followed by post-hoc comparisons with Fisher's test. […]

[11] = system: CREB; conditions: Vanhoutte et al. 1999; cited from earlier work
[12] = system: cAMP; experiment: cAMP levels in hippocampal slices (Scintillation Proximity Assay); assay type: cell-based
Description: Hippocampal slices were treated with fisetin using the conditions where maximal stimulation of CREB phosphorylation and facilitation of LTP were observed. Briefly, hippocampal slices in ACSF were treated with 1 μM fisetin for 5 minutes (fisetin) or 3 μM rolipram for 30 minutes (rolipram) and then either immediately frozen or treated with […] forskolin for an additional 15 minutes (rolipram+forskolin; fisetin+forskolin) prior to freezing. Additional slices were treated only with 5 μM forskolin for 15 minutes (forskolin). Forskolin, an activator of adenylyl cyclase, and rolipram were used as positive controls. The levels of cAMP in the slices were measured using a Scintillation Proximity Assay and presented as pmole/mg protein±S.D.

Q: For `CN[C@H](CC(=O)O)C(=O)O` [NMDA], which “increase in ERK phosphorylation reported following treatment of slices” value [1] is on record?
A: Its value is about 2.5 fold.

Q: For `COc1cccc(-c2cc(=O)c3ccccc3o2)c1N` [PD98059, reference compound], which “effect on the ability of fisetin or its derivatives to prevent cell death” value [2] is on record?
A: Its value is “no significant effect”.

Q: And the “effect on ERK activation by the different flavonoids” value [3]?
A: The value was “blocked”.

Q: And the “effect on activation of ERK by fisetin” value [4]?
A: The value was “blocked”.

Q: And the “effect on activation of CREB by fisetin” value [5]?
A: Its value is “blocked”.

Q: What about the “effect on fisetin-induced facilitation of LTP” value ([6]; PD98059 added 10 minutes prior to fisetin) of the same compound?
A: Its value is “blocked”.

Q: And the “effect on basal synaptic transmission” value ([6]; no tetanus)?
A: Its value is “no effect”.

Q: And the “p42 phosphoprotein signal normalized to total protein” value [7]?
A: Its value is 0.83±0.08.

Q: And the “p44 phosphoprotein signal normalized to total protein” value [8]?
A: The value was 0.75±0.5.

Q: And the “CREB phosphoprotein signal normalized to total protein” value [9]?
A: Its value is 0.64±0.11.

Q: For `O=c1cc(-c2ccc(O)cc2)oc2cc(O)cc(O)c12` [apigenin, reference compound], which object recognition [10] is on record?
A: Its object recognition is “did not exhibit significantly better object recognition”.

Q: Which “increase in CREB phosphorylation reported following treatment of slices” value [11] does the source give for `N[C@@H](CCC(=O)O)C(=O)O` [glutamate] here?
A: Its value is about 2.5 fold.

Q: What about the “increase in ERK phosphorylation reported following treatment of slices” value [1] of the same compound?
A: Its value is 1.5-2 fold.

Q: What does the source list for `COc1ccc(C2CNC(=O)C2)cc1OC1CCCC1` (stereo not drawn) [rolipram, reference compound]?
A: effect on cAMP levels by itself ([12]; 1 μM fisetin 5 minutes, 3 μM rolipram 30 minutes): modestly increased; potentiation of the effect of forskolin on cAMP levels ([12]; then 5 μM forskolin for 15 minutes): significantly potentiated
